Data published in US20230167437A1, “COMPOSITIONS FOR TREATING CANCER WITH KRAS MUTATIONS AND USES THEREOF” (Aadigen, LLC, priority 2020, published 2023).

Key:
[1] = test system: SW403 and SW480 cells; assay: Cell proliferation over 5 days (CellTiter Glow); format: cell-based, human
Experimental: (§1) Transfection protocol. The following protocols are reported for 24/48/96 well plate format transfection. Cells should be trypsinized and seeded a day prior transfection Cells were cultured in Dulbecco's Modified Eagle's Medium (DMEM), supplemented with 2 mM glutamine, 1% antibiotics (streptomycin 10,000 μg/mL, penicillin, 10,000 IU/mL) and 10% (w/v) foetal calf serum (FCS), at 37° C. in a humidified atmosphere containing 5% CO2. 96 well plates seeded with 50,000 cells, the day prior transfection, grown to 60-80% confluence and set up to be at around 70% confluence at the day of transfection. Before transfection, cells are washed twice with DMEM (without FBS and pen/strep) (100 μl/well). Cells were then overlaid with 25 μl of complex solution, mixed gently and incubated for 10 min at 37° C.+5% CO2. 50 μl of fresh DMEM (without FBS and Antibiotics) was added and cells were incubated for 2 h at 37° C.+5% CO2 (time of exposure can be adjusted based on sensitivity of the cells). 250 μL of DMEM (containing 10% FCS and 1% antibiotics) were then added without removing the overlay of ADGN peptide/mRNA complexes. Cells were returned to the incubator (37° C., 5% CO2) and analyzed 48 hours to 72 hours post transfection.
(§2) Nine different gRNAs targeting KRAS 35G>T mutant G12V (gRNA35T1, gRNA35T2, gRNA35T3, gRNA35T4, gRNA35T5, gRNA35T6, gRNA35T7, gRNA35T8 and gRNA35T9 (see FIG. 18)) were evaluated on SW403 and SW480 cancer cells harboring G12V KRAS mutation. Cas9 mRNA (0.15 μg) and gRNA (0.2 μg) were associated with ADGN-peptides as reported in experimental procedure. SW403, SW480 and HT-29 cells were cultured in 48 well plate format and treated with free mRNACas9-gRNA, or ADGN-100/mRNACas9:gRNA complex. Indel frequencies at the endogenous target sequences was evaluated 72 hours after transfection by either T7E1 method and by deep sequencing. Cell proliferation was analyzed over a period of 5 days using CellTiter Glow kits on GlowMax (Promega).

[2] = test system: G12V, G12D, G12C KRAS mutant cells and WT KRAS cells; assay: Specificity of lead sgRNAs on a large panel of cancer cells harboring different KRAS mutations (indel, proliferation); format: cell-based, human; settings: Cas9 mRNA 0.2 μg, gRNA 0.4 μg
Experimental: (§3) In order to confirm the specificity of sgRNAs targeting G12V, G12C or G12D KRAS mutation, gRNA35T3 targeting G12V, gRNA34T6 targeting G12C, and gRNA35A5 targeting G12D were evaluated on a large panel of cancer cells harboring different KRAS mutations including SW403, SW480, PANC1, PK-45H, PK-1, MIA-PACA, H23, H358, HT-29, HS-68 and LS513. Cas9 mRNA (0.2 μg) and gRNA (0.4 μg) were associated with ADGN peptide at molar ratio 20/1 (peptide/nucleic acid). Cells were cultured in 48 well plate format and treated with free mRNACas9-gRNA, or ADGN/mRNACas9:gRNA complex. Indel frequencies at the endogenous target sequences was evaluated 72 hours after transfection by either T7E1 method and cell proliferation was analyzed over a period of 5 days using CellTiter Glow kits on GlowMax (Promega).

[3] = test system: pERK; assay: Downstream signaling proteins quantified by ELISA on tumors; format: in vivo, mice; settings: SW403 tumors
Experimental: The specificity of gRNA35A5 G12D and gRNA35T3 G12V for their targets in PANC-1 and SW403 tumors cells, have been analyzed. Female nude mice 6-weeks of age were injected with either Human pancreatic carcinoma cell (Panc1-Luc) containing the 35G>A mutation or Human colorectal cancer cells (SW403) containing 35G>T KRAS mutation (20×10^6 cells in 200 μl PBS). A period of 2 weeks was allowed for tumor development before the beginning of the experiments.
Animal were injected on day 1 and day 7. Mice received IV injection of 100 μl ADGN/mRNA complex in 5% glucose. At Day 50, animals were sacrificed and tissues/tumors were harvested. At Day 50 post treatment, level of expression of housekeeping genes; glyceraldehyde-3-phosphate dehydrogenase (GAPDH), HPRT-1 and mitochondrial ATP synthase 6 (mATPsy6) was evaluated by PCR in the tumor, liver, spleen and lung.
We analyzed the level of KRAS G12D or KRAS G12V gene editing by deep sequencing in PANC1 (FIG. 14A) and SW403 (FIG. 14B) tumors, respectively. […] The level of downstream signaling proteins (pAKT and pERK) were quantified by ELISA on PANC1 and SW403 tumors. […] Given that targeting KRAS using Cas9/sgRNA can induce various secondary mutations at or near the target sites, deep sequencing shown similar level of secondary oncogenic mutations (G12D, G12V, G12C, G13D, G12R, G12A, and G12S) in KRAS-mutant cancer cells (SW403/PANC-1) or cells containing wild-type KRAS (HT29) either in vitro or in vivo.

[4] = test system: phospho-p44/42 MAPK (Erk1/2) (Thr202/Tyr204); assay: Western blot of KRAS downstream signaling 48 h post transfection; format: cell-based, human; settings: SW403 cells
Experimental: (§4) In order to verify the specific effect of your lead sgRNA targeting G12V and G12D KRAS mutation, gRNA35A5 G12D and gRNA35T3 G12V on KRAS signal transduction pathway in PANC-1 and SW403 cells, we measured the levels of downstream signaling proteins that are activated by KRAS. We specifically looked for changes in key signaling pathways, such as mitogen-activated protein kinase (MAPK) or PI3K/Akt, which are known to be the major effector pathways of KRAS activation. Cas9 mRNA (0.2 μg) and gRNA (0.2 μg or 0.5 μg) were associated with ADGN peptide at molar ratio 20/1 (peptide/nucleic acid). PANC1 and SW403 cells were cultured in 48 well plate format and treated with free mRNACas9-gRNA, or ADGN/mRNACas9:gRNA complex. Levels of Erk and Akt phosphorylation were measured 48 h post transfection by western blot using phospho-Akt (Ser 473) (CST, #9271, RRID:AB_329825) and phospho-p44/42 MAPK (Erk1/2) (Thr202/Tyr204) (CST, #4370, RRID:AB_2315112).

[5] = test system: phospho-Akt (Ser 473); assay: as above; format: cell-based, human; settings: SW403 cells
Experimental: as §4

[6] = test system: KRAS 35G>T mutant G12V; assay: Indel frequencies at the endogenous target sequences (T7E1 / deep sequencing) after ADGN/Cas9 mRNA/gRNA transfection; format: cell-based, human; settings: for indel frequencies: deep sequencing, 72 hours after transfection, Cas9 mRNA 0.15 μg, gRNA 0.2 μg, ADGN-100
Experimental: (§5) Complex formation with mRNA:gRNA: ADGN peptide/mRNA/gRNA particles were prepared at a 20:1:1 molar ratio. ADGN/Cas9mRNA/sgRNA complexes were prepared at a 20/1/1 molar ratio with 0.5 μg mRNA: 1.5 μg sgRNA and 5% Glucose or DMEM (example for 96 well plates). […] Premixed Cas9 mRNA/gRNA were prepared in sterile water at room temperature in a glass vial (1-4 ml). ADGN-peptide solution was added dropwise (1 drop/sec) under magnetic agitation at 400 rpm to obtain a 1:2 ratio, and incubated for 30 min at room temperature or 37° C. Just before transfection, 150 μl Glucose or DMEM was added and the solution was mixed under magnetic agitation at 400 rpm for 1 minute. Then the solution was incubated for 5 min at 37° C. Then the complexes was ready for cell transfection or IV administration. Prior to IV administration, complexes were diluted in sucrose 5% solution.
as §1, §2, §3

[7] = test system: SW403 tumor (Human colorectal cancer, 35G>T); assay: SW403 tumor growth in vivo, combination with Capecitabine; parameters: species or system mice; settings: Capecitabine 200 μg once a week
Experimental: It was also evaluated whether targeting mutant KRAS in combination with a chemotherapeutic agent can suppress tumor growth in vivo when administered intravenously using ADGN-100-Hy3 nanoparticles. Female nude mice 6-weeks of age were injected with either Human pancreatic carcinoma cell (Panc1-Luc) containing the 35G>A mutation, or Human colorectal cancer cells (SW403) containing 35G>T KRAS mutation (20×10^6 cells in 200 μl PBS). The animals were kept under pathogen-free conditions and fed and watered ad libitum, in cages of 2 to 4 animals (in compliance with recommended area surface/animal), in a dedicated room with a 12 h/12 h light/dark cycle at a constant temperature of 22° C. A period of 2 weeks was allowed for tumor development before the beginning of the experiments […]
Animal were injected ADGN/mRNA complex on day 1 and day 7. […] PANC-1 tumor size was evaluated by bioluminescence imaging. […] Semi-quantitative data of luciferase-positive tumor cell signals were obtained using the manufacturer's software (Living Image; PerkinElmer). Results were expressed as photons/second (photons/s). […] Results were then expressed as values relative to day 0. SW403 tumor size was evaluated every 7 days using caliper. Results were then expressed as values relative to day 0. […]

[8] = test system: HT-29 cells; assay: Cell proliferation over 5 days (CellTiter Glow); format: cell-based, human; settings: KRAS WT cells
Experimental: as §1, §2

[9] = test system: wild type KRAS; assay: Indel frequencies at the endogenous target sequences (T7E1 / deep sequencing) after ADGN/Cas9 mRNA/gRNA transfection; format: cell-based, human; settings: HT29 cells
Experimental: as §5, §1, §2
Nine different gRNAs targeting KRAS 35G>A mutant G12D (gRNA35A1, gRNA35A2, gRNA35A3, gRNA35A4, gRNA35A5, gRNA35A6; gRNA35A7, gRNA35A8, gRNA35A9) were evaluated on LS513, Panc1, PK-45H, and PK1 cancer cells harboring G12D KRAS mutation. Cas9 mRNA (0.1 μg) and gRNA (0.2 μg) were associated with ADGN-peptide at molar ratio 20/1 (peptide/nucleic acid). LS513, Panc1, PK-45H, PK1, HS-68 and HT-29 cells were cultured in 48 well plate format and treated with free mRNACas9-gRNA, or ADGN/mRNACas9:gRNA complex. Indel frequencies at the endogenous target sequences was evaluated 72 hours after transfection by either T7E1 method or deep sequencing. Cell proliferation was analyzed over a period of 5 days using CellTiter Glow kits on GlowMax (Promega).

[10] = SW403 cells (heterozygous 35G>T)

## GGTAGTTGGAGCTGTTGGCG (guide GGTAGTTGGAGCTGTTGGCG; chemistry not given here) [gRNA35T3, sgRNA target KRAS G12V mutation (c.35G>T); PAM TAG]
[1]; SW403 and SW480 cells
  fold more efficient than gRNA35T6 (cell proliferation): 2 fold
  fold more efficient than gRNA35T8 (cell proliferation): 1.5 fold
[1]; SW403 and SW480 cells, 5 days
  cell proliferation blocked: 75%
[1]; SW480 and SW403 cells vs HT29 cells harboring KRAS WT
  inhibition of proliferation or survival (FIG. 1B): specifically inhibit proliferation or survival of SW480 and SW403 cells
[2]
  effect on non-targeted KRAS mutant cells and WT KRAS cells (FIGS. 4A-4B): does not alter G12D and G12C KRAS mutant cells or WT KRAS cells
[3]
  level of p-ERK: significantly affected
[4]
  level of p-Erk: significantly affected
[5]
  Akt phosphorylation: poorly
[6]; KRAS G12V mutated cancer cells
  indel frequency: > 70%
[6]; SW403, SW480 vs wild type KRAS HT29 cells, T7E1
  indel editing and disruption of G12V mutant KRAS (FIG. 1A): specifically induced indel editing and efficient disruption
[6]; SW403 and SW480 cells, T7E1, 72 hours, Cas9 mRNA 0.2 μg, gRNA 0.4 μg
  indel frequency: > 65%
[6]; [10]
  indel frequencies: 65%
[6]; SW480 cells (homozygous 35G>T)
  indel frequencies: 81%

## CCCCCOC(=O)Nc1nc(=O)n([C@@H]2O[C@H](C)[C@@H](O)[C@H]2O)cc1F [Capecitabine]
[7]
  reduction of SW403 tumor growth: 38%

## AGC TGT TGG CGT AGG CAA (guide AGCTGTTGGCGTAGGCAA; chemistry not given here) [gRNA35T4, sgRNA target KRAS G12V mutation (c.35G>T); PAM GAG]
[8]
  HT-29 proliferation: altered also HT-29 proliferation
[9]
  disruption of WT KRAS: also induced disruption of WT KRAS in HT29 cells
[6]; [10]
  indel frequencies: 22%
[6]; SW480 cells (homozygous 35G>T)
  indel frequencies: 41%
